SMILES strings stand for the structures.

The results in this text go back to patent US9617310B2 (priority 2013, dated 2017).

Experiment [1] concerns genotype 3a stable HCV replicon (S52) in Huh-7-derived cells. Description: Stable subgenomic HCV replicon, genotype 3a, Renilla luciferase. The format is cell-based. The following applies: Hepatitis C virus, 72 h, read-out: EC50 3A RLUC. As for the experimental part:
(§1) Antiviral potency (EC50) was determined in both stable subgenomic HCV replicon cell lines and transient-transfected HCV replicon cells. The term half maximal effective concentration (EC50) refers to the concentration of a drug which induces a response halfway between the baseline and maximum after the exposure time specified below.
(§2) Stable subgenomic HCV replicons for genotype 1a, 1b, 2a, 3a, and 4a were established in Huh-7-derived cells as described by Lohmann et al (Lohmann V, Korner F, Koch J, et al Replication of subgenomic hepatitis C virus RNAs in a hepatoma cell line. Science 1999; 285:119-3). Each stable cell line contains a bicistronic HCV replicon that encodes a humanized Renilla luciferase (hRLuc) reporter gene fused to a selectable neomycin-resistance gene, followed by an EMCV IRES and the NS3-NS5B coding region of HCV. […] Luciferase activity was measured as a marker for intracellular HCV replication levels.
(§3) The genotype 1a stable replicon was derived from the H77 HCV strain and contained adaptive mutations P1496L and S2204I. The genotype 1b stable replicon was derived from the Con1 HCV strain and contained adaptive mutations E1202G, T1280I, and K1846T. […] The genotype 3a stable replicon was derived from the S52 HCV strain and contained adaptive mutations P1121 L, A1198T and S2210I (equivalent to S2204I in genotype 1). The genotype 4a stable replicon was derived from the ED43 HCV strain and contained adaptive mutations Q1691R and S2204I. All replicon cell lines were propagated in Huh-7-derived cells and maintained in Dulbecco's modified Eagle's Medium (DMEM) supplemented with 10% fetal bovine serum (FBS) and 0.5 mg/ml G418.
(§4) To perform EC50 assays, cells from each HCV replicon were dispensed into 384-well plates. Compounds were dissolved in DMSO at a concentration of 10 mM and diluted in DMSO using an automated pipetting instrument. Three-fold serially diluted compounds were directly added to the cells using an automated instrument. DMSO was used as a negative (solvent; no inhibition) control, and a combination of three HCV inhibitors including a protease inhibitor; an NS5A inhibitor and a nucleoside inhibitor was used at concentrations >100×EC50 as a positive control (100% inhibition). Seventy-two hours later, cells were lysed and Renilla luciferase activity were quantified as recommended by the manufacturer (Promega-Madison, Wis.). Non-linear regression was performed to calculate […], values.

Experiment [2] has as its system genotype 4a stable HCV replicon (ED43) in Huh-7-derived cells. The experiment in a line: Stable subgenomic HCV replicon, genotype 4a, Renilla luciferase. The format is cell-based. The conditions noted are these: Hepatitis C virus, 72 h, read-out: EC50 4A RLUC. As for the experimental part:
as §1, §2, §3, §4

Experiment [3] concerns genotype 1b wild-type transient HCV replicon in Huh-7-derived cells. The experiment in a line: Transient-transfected HCV replicon, genotype 1b wild type. The format is cell-based. The conditions noted are these: Hepatitis C virus; transient-transfected replicon genotype 1b wild type, 72 h; read-out: EC50 1B WT.
Experiment [4] relates to NS3/4a protease inhibitor resistant variant R155K in genotype 1a transient HCV replicon. Description: Transient-transfected HCV replicon, genotype 1a R155K. The format is cell-based. The conditions noted are these: Hepatitis C virus, 72 h, read-out: EC50 1A R155K.
The test system of experiment [5] is genotype 1a stable HCV replicon (H77) in Huh-7-derived cells. The experiment in a line: Stable subgenomic HCV replicon, genotype 1a, Renilla luciferase. The format is cell-based. The following applies: Hepatitis C virus, stable replicon genotype 1a, 72 h, read-out: EC50 1A RLUC. Here is the method:
as §1, §2, §3, §4

The next experiment deals with T1, NS3 genotype 1b protease (Hepatitis C virus genotype 1b, UniProt Q9WMX2, E1202G).
T1 construct: Purified NS3 protease domain (amino acids 1-181) of the genotype 1b and 3a virus were generated as above; K3 hexahistidine tag (N); rTEV protease cleavage site (N); made in house; host or cells: E. coli BL21AI
T1 sequence (Q9WMX2 1027-1207 E1202G, other chains not shown): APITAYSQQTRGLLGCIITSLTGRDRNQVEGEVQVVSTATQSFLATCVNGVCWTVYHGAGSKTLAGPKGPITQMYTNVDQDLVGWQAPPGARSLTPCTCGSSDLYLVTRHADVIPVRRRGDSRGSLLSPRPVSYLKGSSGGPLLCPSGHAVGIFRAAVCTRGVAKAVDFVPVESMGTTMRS
Description: Ki determination, NS3 protease genotype 1b (fluorogenic depsipeptide substrate). The format is biochemical. The following applies: NS3 protease domain genotype 1b, NS4A peptide. The text has this: Ki Determination for Genotypes 1b and 3a NS3 Protease.
Purified NS3 protease domain (amino acids 1-181) of the genotype 1b and 3a virus were generated as above. The internally quenched fluorogenic depsipeptide substrate Ac-DED(Edans)-EEAbuψ[COO]ASK(Dabcyl)-NH2 and a synthetic peptide containing the hydrophobic core residues of the NS4A protein cofactor ([…]; NS4A peptide) were obtained from Anaspec, Inc. (San Jose, Calif.). Other chemicals and biochemicals were of reagent grade or better and were purchased from standard suppliers.
Reactions were run at room temperature in buffer consisting of 50 mM HEPES, 40% glycerol, 0.05% Triton X-100, 10 mM DTT, and 10% DMSO. The final assay solutions contained 50 pM NS3 genotype 1b protease or 200 pM genotype 3a protease, 20 μM NS4A peptide, and 4 μM substrate (genotype 1b) or 2 μM substrate (genotype 3a). Inhibitor concentrations varied from 100 nM to 5 pM in 3-fold dilutions, and no-inhibitor controls were included.
Compound dilutions were made in DMSO at 20× final concentration. Reaction mixtures were prepared in 96-well assay plates. A solution of enzyme and NS4A peptide in assay buffer (25 μL volume with both reagents at 4× final concentration) was mixed with 45 μL assay buffer and 5 μL of either inhibitor or DMSO, and pre-incubated at room temperature for 1 hour. The reaction was started by addition of 25 μL substrate solution at 4× final concentration. Plates were mixed vigorously for 5-10 seconds and reactions were allowed to proceed for 90 minutes. Fluorescence was measured every 30 s between 90 and 120 minutes reaction time using a Tecan InfiniTe M1000 or PerkinElmer Envision multimode plate reader with an excitation wavelength of 340 nm and an emission wavelength of 490 nm.
Rates were calculated from the progress curves at steady state, in the time frame of 90-120 minutes after addition of substrate. To determine the Ki, rates were plotted as a function of inhibitor concentration, and the data were fit with equation 1 (Morrison, J. F., Biochimica et Biophysica Acta 1969, 185, 269-286) to calculate Ki^app using GraphPad Prism 5. Active fraction of enzyme was determined by active site titration with known potent inhibitors. Ki was calculated from Ki^app/(1+[[S]/Km]).

Experiment [6] has as its system genotype 1b stable HCV replicon (Con1) in Huh-7-derived cells. Description: Stable subgenomic HCV replicon, genotype 1b, Renilla luciferase. The format is cell-based. The conditions noted are these: Hepatitis C virus, stable replicon genotype 1b, 72 h, read-out: EC50 1B RLUC. Put shortly: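 Replicons carry hRLuc-neo, EMCV IRES and NS3-NS5B with adaptive mutations: 1a H77 P1496L/S2204I, 1b Con1 E1202G/T1280I/K1846T, 4a ED43 Q1691R/S2204I. EC50 came from non-linear regression versus DMSO and a triple-inhibitor full-inhibition control.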

The subject of experiment [7] is genotype 3a transient HCV replicon (S52) in Huh-7-derived cells. Description: Transient-transfected HCV replicon, genotype 3a wild type. The conditions noted are these: Hepatitis C virus; transient-transfected replicon genotype 3a wild type, 72 h; read-out: EC50 3A WT. The format is cell-based.

On to `COc1ccc2nc3c(nc2c1)O[C@@H]1C[C@@H](C(=O)N[C@]2(C(=O)NS(=O)(=O)C4CC4)C[C@H]2C(F)F)N(C1)C(=O)[C@H](C(C)(C)C)NC(=O)O[C@@H]1[C@H]2CC[C@H](C2)[C@H]1CCCCC3` [Example 4, (1R,4S,4aR,8S,11S,13R,25aR)-8-tert-butyl-N-[(1R,2R)-1-[(cyclopropylsulfonyl)carbamoyl]-2-(difluoromethyl)cyclopropyl]-17-methoxy-6,9-dioxo-2,3,4,4a,6,7,8,9,12,13,21,22,23,24,25,25a-hexadecahydro-1H,11H-1, 4:10,13-dimethanoquinoxalino[2,3-k][1,10,3,6]benzodioxadiazacyclononadecine-11-carboxamide], for which the EC50 was determined as 429 nM in experiment [1]; 3.1 nM in experiment [2]; 1.2 nM in experiment [3]; 27 nM in experiment [4]; 4.3 nM in experiment [5]; 2.6 nM in experiment [6]. Further, the EC50 in experiment [7] is 63 nM. The compound also returned a Ki at NS3 genotype 1b protease of 0.02 nM.

Consider `COc1ccc2nc3c(nc2c1)O[C@@H]1C[C@@H](C(=O)N[C@]2(C(=O)NS(=O)(=O)C4(C)CC4)C[C@H]2C(F)F)N(C1)C(=O)[C@H](C(C)(C)C)NC(=O)O[C@@H]1[C@H]2CC[C@H](C2)[C@H]1CCCCC3` [Example 5, (1R,4S,4aR,8S,11S,13R,25aR)-8-tert-butyl-N-[(1R,2R)-2-(difluoromethyl)-1-{[(1-methylcyclopropyl)sulfonyl]carbamoyl}cyclopropyl]-17-methoxy-6,9-dioxo-2,3,4,4a,6,7,8,9,12,13,21,22,23,24,25,25a-hexadecahydro-1H,11H-1, 4:10,13-dimethanoquinoxalino[2,3-k][1,10,3,6]benzodioxadiazacyclononadecine-11-carboxamide], for which the EC50 in experiment [1] is 473 nM; in experiment [2], 3.9 nM; in experiment [3] it was 2.1 nM; in experiment [4], 35 nM; in experiment [5], 5 nM; in experiment [6], 3.5 nM. In experiment [7], the EC50 is 64 nM. In addition, on NS3 genotype 1b protease, the affinity, expressed as Ki, was 0.02 nM.

Consider `COc1ccc2nc3c(nc2c1)O[C@@H]1C[C@@H](C(=O)N[C@]2(C(=O)NS(=O)(=O)C4CC4)C[C@H]2C(F)F)N(C1)C(=O)[C@H](C(C)(C)C)NC(=O)O[C@H]1[C@H](CCCCC3)C[C@H]2C[C@H]21` [Example 7, (1aR,1bS,5S,8S,10R,22aR,23aR)-5-tert-butyl-N-[(1R,2R)-1-[(cyclopropylsulfonyl)carbamoyl]-2-(difluoromethyl)cyclopropyl]-14-methoxy-3,6-dioxo-1a,1b,3,4,5,6,9,10,18,19,20,21,22,22a,23,23a-hexadecahydro-1H,8H-7,10-methanocyclopropa[3′,40]cyclopenta[1′,2′:18,19][1,10,3,6]dioxadiazacyclononadecino[11,12-b]quinoxaline-8-carboxamide], for which the EC50 in experiment [1] came out at 3300 nM; in experiment [2], 55 nM; in experiment [3], 53 nM; in experiment [4], 180 nM; in experiment [5], 95 nM; in experiment [6], 82 nM. In experiment [7], the EC50 amounted to 928 nM. On NS3 genotype 1b protease, this compound had a Ki of 0.05 nM.

Consider `COc1ccc2nc3c(nc2c1)O[C@@H]1C[C@@H](C(=O)N[C@]2(C(=O)NS(=O)(=O)C4(C)CC4)C[C@H]2C(F)F)N(C1)C(=O)[C@H](C(C)(C)C)NC(=O)O[C@H]1[C@H](CCCCC3)C[C@H]2C[C@H]21` [Example 8, (1aR,1bS,5S,8S,10R,22aR,23aR)-5-tert-butyl-N-[(1R,2R)-2-(difluoromethyl)-1-{[(1-methylcyclopropyl)sulfonyl]carbamoyl}cyclopropyl]-14-methoxy-3,6-dioxo-1a,1b,3,4,5,6,9,10,18,19,20,21,22,22a, 23,23a-hexadecahydro-1H,8H-7,10-methanocyclopropa[3′,4′]cyclopenta [1′,2′:18,19][1,10,3,6]dioxadiazacyclononadecino[11,12-b]quinoxaline-8-carboxamide], for which the EC50 in experiment [1] was 2450 nM; in experiment [2], 33 nM; in experiment [3] it was 33 nM; in experiment [4] it was 148 nM; in experiment [5], 76 nM; in experiment [6], 55 nM. Also, in experiment [7], the EC50 came to 817 nM. For the same compound, the Ki on NS3 genotype 1b protease stood at 0.04 nM.

`COc1ccc2nc3c(nc2c1)O[C@@H]1C[C@@H](C(=O)N[C@]2(C(=O)NS(=O)(=O)C4(C)CC4)C[C@H]2C(F)F)N(C1)C(=O)[C@H](C(C)(C)C)NC(=O)O[C@@H]1C[C@@H]2C[C@@H]2[C@H]1CCCCC3(F)F` [Example 10, (1aS,2aR,6S,9S,11R,23aR,23bS)-6-tert-butyl-N-[(1R,2R)-2-(difluoromethyl)-1-{[(1-methylcyclopropyl)sulfonyl]carbamoyl}cyclopropyl]-19,19-difluoro-15-methoxy-4,7-dioxo-1a,2,2a,4,5,6,7,10,11,19,20,21,22,23,23a,23b-hexadecahydro-1H,9H-8,11-methanocyclopropa [4′,5′]cyclopenta[1′,2′:18,19][1,10,3,6]dioxadiazacyclononadecino[11,12-b]quinoxaline-9-carboxamide]: the EC50 amounted to 4.9 nM in experiment [1]; 1.3 nM in experiment [2]; 0.75 nM in experiment [3]; 1.3 nM in experiment [4]; 1.6 nM in experiment [5]; 1.4 nM in experiment [6]. Besides, the EC50 in experiment [7] was found to be 2.3 nM. The Ki at NS3 genotype 1b protease came to 0.02 nM.
